Measurements from ChEMBL document CHEMBL4043266, “Pentacyclic triterpenes as α-glucosidase and α-amylase inhibitors: Structure-activity relationships and the synergism with acarbose” (Bioorg Med Chem Lett, 2017).

Assays:
[1] = biological target: T1, Pancreatic alpha-amylase (Sus scrofa) (UniProt P00690)
T1 sequence (whole entry): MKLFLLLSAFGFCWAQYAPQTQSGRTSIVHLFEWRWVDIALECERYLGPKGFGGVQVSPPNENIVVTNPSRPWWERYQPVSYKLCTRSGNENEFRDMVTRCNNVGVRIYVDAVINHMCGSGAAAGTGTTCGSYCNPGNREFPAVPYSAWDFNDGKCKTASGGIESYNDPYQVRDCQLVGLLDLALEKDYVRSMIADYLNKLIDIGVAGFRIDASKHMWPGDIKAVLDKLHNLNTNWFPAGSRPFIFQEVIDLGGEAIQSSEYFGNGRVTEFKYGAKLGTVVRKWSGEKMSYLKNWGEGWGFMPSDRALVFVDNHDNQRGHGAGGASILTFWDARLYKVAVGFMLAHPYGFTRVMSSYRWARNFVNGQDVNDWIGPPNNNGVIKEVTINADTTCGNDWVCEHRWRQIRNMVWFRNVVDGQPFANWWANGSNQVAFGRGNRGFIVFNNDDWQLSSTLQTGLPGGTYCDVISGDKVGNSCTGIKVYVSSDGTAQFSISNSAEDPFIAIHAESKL
Description: Non-competitive inhibition of porcine pancreatic alpha-amylase assessed as inhibitor-enzyme-substrate complex using starch as substrate by Lineweaver-Burk plot analysis

[2] = biological target: T1, Pancreatic alpha-amylase (Sus scrofa); remark: listed apart in the source
Description: Non-competitive inhibition of porcine pancreatic alpha-amylase assessed as inhibitor-enzyme complex using starch as substrate by Lineweaver-Burk plot analysis

Kis [1]: 25.6 µM | Kii [2]: 28.3 µM
SMILES: C[C@H]1[C@H](C)CC[C@]2(C(=O)O)CC[C@]3(C)C(=CC[C@@H]4[C@@]5(C)C[C@@H](O)[C@H](O)C(C)(C)[C@@H]5CC[C@]43C)[C@H]12
